Source: patent US10653645B2, “Method for enhancing folding and transport of misfolded glucocerebrosidase” (The Hospital for Sick Children, priority 2007, dated 2020)
Like-named read-outs stand apart in the source and are kept apart here.

Tests used:
wild type (WT) GCase = molecular target: T1, wild type (WT) GCase (Homo sapiens, UniProt P04062, R534H); assay: Heat denaturation of GCase at 50° C.; format: biochemical; conditions: for increase of the half life of GCase: 20 μM
T1 construct: purchased Genzyme
T1 sequence (P04062 40-536 R534H): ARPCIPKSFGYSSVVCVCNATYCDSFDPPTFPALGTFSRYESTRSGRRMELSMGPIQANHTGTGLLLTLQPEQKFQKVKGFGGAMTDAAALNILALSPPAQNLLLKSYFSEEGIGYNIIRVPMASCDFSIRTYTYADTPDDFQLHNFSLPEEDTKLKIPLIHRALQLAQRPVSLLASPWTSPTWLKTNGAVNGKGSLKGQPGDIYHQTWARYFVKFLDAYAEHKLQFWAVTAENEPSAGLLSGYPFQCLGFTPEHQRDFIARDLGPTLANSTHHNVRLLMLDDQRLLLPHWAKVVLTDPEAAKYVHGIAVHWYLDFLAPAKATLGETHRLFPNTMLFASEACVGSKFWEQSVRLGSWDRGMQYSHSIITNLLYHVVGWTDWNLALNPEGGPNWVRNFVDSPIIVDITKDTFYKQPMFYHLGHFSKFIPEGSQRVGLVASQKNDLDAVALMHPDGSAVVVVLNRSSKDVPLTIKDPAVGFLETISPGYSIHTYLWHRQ
Method: (§1) Experiments set forth herein and related to the activity and function of GCase in the presence and absence of compounds of the invention were conducted using imiglucerase (CEREZYME, Genzyme) as the GCase. Cellular materials were obtained from fibroblast lysates expressing wild-type GCase and separately from fibroblast lysates derived from Gaucher disease patient cell lines carrying genotypes that encode either the N370S/N370S or F213I/L444P substitutions in GCase.
(§2) Quantitative determinations of enzymatic activity were performed by way of fluorometric assays utilizing the artificial substrate 4-methylumbelliferyl 2-acetamido-2-deoxy-beta-D-glucopyranoside (MUGlc). Reactions were performed at room temperature for 15-30 minutes, as indicated, using equal aliquots of enzyme (25 μL 20 mM Citrate Phosphate pH 5.5, 0.4% Taurodeoxycholate (TC)) and substrate (25 μL 20 mM Citrate Phosphate pH 5.5, MUGlc 1.6 mM). The amount of MU-fluorophore released in each assay was monitored fluorometrically using a spectrophotofluorometer following the addition of a 4-fold (200 μl) excess of 0.1M MAP, pH 10.5.

[1] = test system: Gaucher disease fibroblast cell lines harboring the N370S/N370S missense mutation; assay: Immunohistochemical fluorescence labeling, colocalization of GCase and Lamp-1; format: cell-based, human; conditions: N370S/N370S fibroblasts
Method: Immunohistochemical fluorescence labeling of GD fibroblast cell lines harboring the N370S/N370S missense mutation were performed with rabbit polyclonal anti-GCase and mouse anti-Lamp-1 (lysosomal membrane associated protein). Cell nuclear staining was performed with 4′-6′-diamidino-2-phenylindole. […] (FIG. 6A, staining with anti-GCase in the presence of ABX; FIG. 6B, staining with anti-Lamp-1 in the presence of ABX; FIG. 6C, merger of FIGS. 6A and 6B; FIG. 6D, staining with anti-GCase in the presence of IFG; FIG. 6E, staining with anti-Lamp-1 in the presence of IFG; FIG. 6F, merger of FIGS. 6D and 6E; FIG. 6G, staining with anti-GCase in the absence of drug; FIG. 6H, staining with anti-Lamp-1 in the absence of drug; FIG. 6I, merger of FIGS. 6G and 6H.)
Immunohistochemical fluorescence labeling of Gaucher disease fibroblast cell lines harboring the N370S/N370S missense mutation was performed with rabbit polyclonal anti-GCase and mouse anti-Lamp-1 (lysosomal membrane associated protein). Cell nuclear staining was performed with 4′-6′-diamidino-2-phenylindole. […] Restored activity and trafficking of mutant GCase are the ultimate goals of a pharmacological chaperone-based therapeutic strategy.

[2] = molecular target: T2, human beta-glucocerebrosidase (GCase, CEREZYME) (Homo sapiens, UniProt P04062, R534H); assay: GCase activity fluorometric assay (inhibition, kinetics, pH dependence)
T2 sequence (P04062 40-536 R534H): T1 sequence (P04062 40-536 R534H)
Method: as §1, §2
The activity of GCase was also assayed at several different pH values, including 4.5, 5.0, 5.5, 6.0, 6.5 and 7.0.

## Nc1c(Br)cc(Br)cc1CN[C@H]1CC[C@H](O)CC1 [Ambroxol, trans-4-(2-amino-3,5-dibromobenzylamino) cyclohexanol]
Wild type (WT) GCase
  increase of the half life of GCase: more than three-fold
Wild type (WT) GCase; highest concentration of ambroxol, vs DMSO
  increase in GCase activity remaining after incubation: more than three-fold
[1]
  Colocalization of GCase and Lamp-1 at the lysosome (rescue of mutant GCase trafficking): Colocalization of GCase and Lamp-1 occurs at the lysosome
[2]; 25 μM ambroxol, pH 4.5, 5.0, 5.5, 6.0, 6.5 and 7.0 assayed
  inhibition of GCase under acidic conditions: only marginally inhibited
[2]; kinetic analysis
  mode of inhibition of GCase: competitive inhibitor

## CN(Cc1cc(Br)cc(Br)c1N)C1CCCCC1 [Bromhexine, 2-amino-3,5-dibromo-N-cyclohexyl-N-methylbenzenemethanamine]
[2]
  IC50: 60 µM
[2]; Table 2 IC50 values
  inhibitory activity compared with ambroxol: two fold reduction

## Nc1ccc(Br)cc1Br [Dibromoaniline]
[2]; 0.3 mM MUbGlc as the substrate
  IC50: Dibromoaniline (NI −1000)

## O=C(Nc1ccc(Br)cc1Br)c1ccccc1 [Dibromophenyl Benzamide]
[2]
  IC50: > 1000 µM

## Nc1c(Br)cc(Br)cc1Br [Tribromoaniline]
[2]; 0.3 mM MUbGlc as the substrate
  IC50: Tribromoaniline (NI −1000)

## CCC(=O)Oc1c(Br)cc(Br)cc1Br [Tribromophenyl Propanoate]
[2]
  IC50: > 1000 µM

## OC[C@H]1CNC[C@@H](O)[C@@H]1O [isofagomine]
Wild type (WT) GCase
  increase of the half life of GCase: more than three-fold
